Experiment [1] addresses T1, human sGC α subunit and β subunit (Homo sapiens, UniProt Q02153).
T1 construct: expressed in transfected cells
T1 sequence (Q02153 1-619): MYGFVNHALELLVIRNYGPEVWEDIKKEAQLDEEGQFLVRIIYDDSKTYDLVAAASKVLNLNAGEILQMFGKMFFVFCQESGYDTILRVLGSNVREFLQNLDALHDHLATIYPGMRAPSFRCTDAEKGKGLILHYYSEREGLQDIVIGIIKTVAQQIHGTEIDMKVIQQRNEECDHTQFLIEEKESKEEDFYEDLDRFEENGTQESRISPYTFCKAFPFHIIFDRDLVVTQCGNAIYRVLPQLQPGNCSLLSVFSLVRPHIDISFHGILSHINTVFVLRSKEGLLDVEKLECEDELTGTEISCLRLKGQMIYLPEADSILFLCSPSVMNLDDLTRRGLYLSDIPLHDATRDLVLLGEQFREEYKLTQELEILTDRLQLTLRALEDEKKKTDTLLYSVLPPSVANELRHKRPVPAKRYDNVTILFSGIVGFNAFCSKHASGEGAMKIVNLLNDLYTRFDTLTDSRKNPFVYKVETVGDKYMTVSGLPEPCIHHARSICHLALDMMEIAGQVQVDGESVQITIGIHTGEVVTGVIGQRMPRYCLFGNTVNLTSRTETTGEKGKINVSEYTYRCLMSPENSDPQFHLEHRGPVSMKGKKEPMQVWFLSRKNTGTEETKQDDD
T1 sequence (Q02108 1-690 partner): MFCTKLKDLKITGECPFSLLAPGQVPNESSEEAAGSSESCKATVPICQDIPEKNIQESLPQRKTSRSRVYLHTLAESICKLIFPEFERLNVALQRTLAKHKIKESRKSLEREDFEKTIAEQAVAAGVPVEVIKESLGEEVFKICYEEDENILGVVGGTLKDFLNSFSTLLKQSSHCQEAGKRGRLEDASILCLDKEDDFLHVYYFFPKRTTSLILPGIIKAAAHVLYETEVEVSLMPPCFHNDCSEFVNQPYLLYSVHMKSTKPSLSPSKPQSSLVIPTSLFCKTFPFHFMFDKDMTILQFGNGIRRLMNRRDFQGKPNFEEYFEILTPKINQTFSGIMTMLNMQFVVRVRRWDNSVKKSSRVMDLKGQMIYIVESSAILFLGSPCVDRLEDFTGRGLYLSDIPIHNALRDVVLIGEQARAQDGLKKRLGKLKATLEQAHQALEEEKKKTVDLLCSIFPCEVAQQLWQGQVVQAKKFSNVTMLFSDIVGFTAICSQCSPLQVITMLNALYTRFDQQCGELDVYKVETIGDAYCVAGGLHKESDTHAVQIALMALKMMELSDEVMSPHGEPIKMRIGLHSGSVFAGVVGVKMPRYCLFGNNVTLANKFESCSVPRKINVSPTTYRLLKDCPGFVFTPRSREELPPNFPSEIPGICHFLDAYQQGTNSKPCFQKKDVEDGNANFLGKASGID
Kind of experiment: Maximum effect of sGC activating function (Ca2+ fluorescence in CHO-K1 cells expressing human sGC and mouse CNGA2). It counts as cell-based. As to conditions: increase ratio of sGC activity vs control solution at 10 μmol/L test compound. The protocol: For the assay, Chinese hamster ovary cells (CHO-K1 cells) in which human sGC α subunit and β subunit and mouse cyclic nucleotide gated channel (CNGA2) are stably expressed were used.
CHO-K1 cells in which human sGC and mouse CNGA2 are stably expressed were cultured at 37° C. in F-12 medium containing 10% (v/v) fetal bovine serum (FBS), penicillin (100 U/mL), streptomycin (100 μg/mL), G418 (250 μg/mL), and zeocin (250 μg/mL). The cells were suspended in the culture medium and seeded onto a 96-well plate, and then cultured at 37° C. for 24 hours. After washing with assay buffer 1 (140 mmol/L sodium chloride, 5 mmol/L potassium chloride, 0.5 mmol/L magnesium chloride, 0.01 mmol/L calcium chloride, 10 mmol/L glucose, 0.4 mmol/L magnesium sulfate, 10 mmol/L 4-(2-hydroxyethyl)piperazin-1-ylethane sulfonic acid, and 125 μmol/L sulfinpyrazone, pH 7.4), an indicator solution in which FURA2-AM as a fluorescent Ca^2+ indicator is dissolved at concentration of 5 μmol/L in assay buffer 1 was added followed by culture for 60 minutes at 37° C. The indicator solution was removed. After washing with assay buffer 1, the test compound solution was added and incubated for 10 minutes at room temperature. The plate was placed in a fluorometer (Flex Station II, Molecular Devices, LLC), and then the intracellular calcium concentration was measured as fluorescence intensity ratio which is obtained from each excitation wavelength (excitation wavelength of 340 nm and 380 nm and detection wavelength of 510 nm).
The test compound solution was prepared by dissolving each of the test compounds in DMSO to a concentration of 10 mmol/L, and then adding the assay buffer 2 (140 mmol/L sodium chloride, 5 mmol/L potassium chloride, 0.5 mmol/L magnesium chloride, 1 mmol/L calcium chloride, 10 mmol/L glucose, 0.4 mmol/L magnesium sulfate, 10 mmol/L 4-(2-hydroxyethyl)piperazin-1-ylethane sulfonic acid, 125 μmol/L sulfinpyrazone, 100 μmol/L isobutylmethylxanthine, 10 μmol/L 1H-[1,2,4]-oxadiazole[4,3-a]quinoxalin-1-one (hereinbelow, ODQ), pH 7.4) for dilution to have test concentration of 10 μmol/L. For the evaluation of a case in which ODQ is not contained, the same evaluation was performed except that ODQ is excluded from assay buffer 2. As a control solution, a DMSO solution was used instead of the test compound solution.
The activity of the test compound corresponds to the increase ratio (%) of the sGC activity at the time of adding the test compound solution with respect to the sGC activity at the time of adding the control solution, and it was calculated by dividing the fluorescence intensity ratio at the time of adding the test compound by the fluorescence intensity ratio of the control solution and subtracting the sGC activity (100%) at the time of adding the control solution.
In this assay, intracellular cGMP concentration increases as sGC is activated, and according to opening of CNGA2 following the increase of cGMP, intracellular Ca^2+ concentration increases. Thus, SGC activation can be measured by following the change in intracellular Ca^2+ concentration. […] Thus, in the absence of ODQ, the maximum sGC activating function including the heme-dependent activation can be evaluated while the heme-independent sGC activating function can be evaluated in the presence of ODQ.

Experiment [2] relates to abdominal aorta ring specimen. Kind of experiment: Evaluation of blood vessel relaxing function (phenylephrine-contracted abdominal aorta ring). The following applies: relaxation of rat abdominal aorta contracted with 1 μmol/L phenylephrine; without vs with 10 μmol/L ODQ. The protocol:
The representative compounds of the present invention were evaluated by blood vessel relaxing function according to the following Test Example. In the assay, bleeding from the upper part of a heart of a rat (male, SD) was performed under anesthesia with pentobarbital (30 mg/kg) and then abdominal aorta was extracted. The connecting tissue adhered around blood vessel was removed from the abdominal aorta in an ice-cooled Krebs-Henseleit solution (KH solution) (118 mmol/L sodium chloride, 4.7 mmol/L potassium chloride, 1.2 mmol/L magnesium sulfate, 1.2 mmol/L potassium dihydrogen phosphate, 25 mmol/L sodium hydrogen carbonate, 2.5 mmol/L calcium chloride, and 10 mmol/L glucose, pH 7.4). After that, a ring specimen with length of 2 mm was prepared and fixed in 5 mL organ bath filled with a KH solution. The KH solution was kept at 37° C. and aerated with a mixture gas of 95% O2 and 5% CO2. The specimen was stabilized for 1 hour with static tension of 1 g. The KH solution was exchanged twice during that time. The tension on the specimen was recorded on a multi-channel recorder via pickup and amplifier. After the stabilization of the specimen, contraction was caused by using 1 μmol/L phenylephrine (Phe), and cumulative administration of each compound (0.001, 0.01, 0.03, 0.1, 0.3, 1, 3, 10, 30, 100, 1000, 10000 nmol/L) was performed. For the evaluation of a case in which 1H-1,2,4-oxadiazole-(4,3a)-quinoxalin-1-one (ODQ) is contained, 10 μmol/L ODQ was added 10 minutes before the Phe addition, and the same evaluation as above was performed.
EC50 value was calculated using four-parameter logistics model using Assay Explorer (Accelrys). The test compound solution was dissolved in DMSO such that the concentration of each test compound is 1000 times the final concentration.

[3] abbreviates: ODQ not contained, read-out: Emax (%) ODQ− (Heme-dependent).
[4] abbreviates: with 10 μmol/L ODQ, read-out: Emax (%) ODQ+ (Heme-independent).

The source of these data is patent US9290440B2, “Bicyclic compound” (TOA EIYO LTD., priority 2012, dated 2016).

Structures are written as SMILES. Where two headings read alike, the source gives them in different places.

What is called Emax is the maximal effect, on the per cent scale that the assay sets. Consider `O=C(O)CCCCN(CCc1ccccc1OCc1ccc(C2CC2)cc1)C1CCCc2cc(C(=O)O)ccc21` (stereo not drawn) [Example 42, 5-{N-(4-Carboxybutyl)-N-[2-[2-(4-cyclopropylbenzyloxy)phenyl]ethyl]amino}-5,6,7,8-tetrahydronaphthalene-2-carboxylic acid], for which the Emax at 10 µM was found to be 86.7% in experiment [1] (setting [3]) and 122% in experiment [1] (setting [4]). In experiment [2], the “EC50 Ratio (ODQ−/ODQ+)” value was determined as 4.3.
The like results for `CC(C)c1ccc(COc2ccccc2CCN(CCCCC(=O)O)C2CCCc3cc(C(=O)O)ccc32)cc1` (stereo not drawn) [Example 43, 5-{N-(4-Carboxybutyl)-N-[2-[2-(4-isopropylbenzyloxy)phenyl]ethyl]amino}-5,6,7,8-tetrahydronaphthalene-2-carboxylic acid] were, in that order, 90.3%, 107% and 5.5.
The corresponding values for `C[C@@H](Oc1ccccc1CCN(CCCCC(=O)O)C1CCCc2cc(C(=O)O)ccc21)c1ccc(C(C)(C)C)cc1` (stereo partly drawn) [Example 45, 5-{N-[2-[2-[(1R)-1-(4-tert-Butylphenyl)ethoxy]phenyl]ethyl]-N-(4-carboxybutyl)amino}-5,6,7,8-tetrahydronaphthalene-2-carboxylic acid] are 95.3%, 121% and 3.5.
The corresponding values for `O=C(O)CCCCN(CCc1ccccc1OCc1ccc2c(c1)CCC2)C1CCCc2cc(C(=O)O)ccc21` (stereo not drawn) [Example 46, 5-{N-(4-Carboxybutyl)-N-[2-[2-(indane-5-ylmethoxy)phenyl]ethyl]amino}-5,6,7,8-tetrahydronaphthalene-2-carboxylic acid] are 81.3%, 123% and 5.2.
